{"source": "patent US20250032385A1", "about": "“FUNCTIONAL COMPOSITION FOR ALOPECIA COMPRISING CENTIPEDA MINIMA-DERIVED EXTRACT” (priority 2021, published 2025)", "key": {"[1]": {"tested_on": "mouse macrophage RAW 264.7 cells", "format": "cell-based", "conditions": "for NO production as the concentration increased: 100 ng/ml LPS, 1.25, 2.5, 5 and 10 μg/ml; for NO production as the concentration increased / Concentration at which the production of NO was the lowest: 24 hours; for Concentration at which the production of NO was the lowest: tested 1.25-10 μg/ml; for Effect relative to the same amount Brevilin-A (potency value of inflammation inhibition rate): from NO production potency formulas, FIG. 12", "protocol": "The amount of NO produced by the cultured RAW 264.7 cells and present in the culture medium was measured using a NO detection kit (cat. No. 21021, Intron) based on the Griess reaction. 100 μl of the culture medium estimated to contain NO was dispensed into 96-well plates, and then 50 μl of N1 buffer (sulfanilamide) was added thereto and reacted at room temperature for 10 minutes. Next, 50 μl of N2 buffer (naphthylethylenediamine) was added thereto and reacted at room temperature for 10 minutes, and then the absorbance was measured at 540 nm. The amount of NO produced was determined using a standard calibration curve obtained using a nitrite standard. In addition, a positive control group (CTL) was treated with only LPS and fresh medium not containing any of the components, and a negative control group was treated with only 100 ng/ml LPS. The measurement results are presented as the average value of three repeated experiments."}, "[2]": {"tested_on": "mouse macrophage RAW 264.7 cells", "conditions": "24 hours; for Cell viability compared with positive control group (CTL): 10 μg/mL; for Cell viability as the concentration increased (cytotoxicity): 1.25, 2.5, 5 and 10 μg/ml; for Concentration at which the cell viability was the highest: tested 1.25-10 μg/ml", "protocol": "In addition, for comparison, an NO production inhibition measurement experiment and a cell viability measurement experiment were also conducted on the synthetic anti-inflammatory agent dexamethasone.\nThe experiments were conducted using mouse macrophage RAW 264.7 cells as an inflammatory model. RAW 264.7 cells were cultured in a 100 mm cell culture dish with DMEM containing 10% fetal bovine serum and 1% penicillin in a 5% CO2 incubator. Cells that reached confluence were detached using a scraper and subcultured.\nSpecifically, for the experiment on cell viability, RAW 264.7 cells were dispensed on a 60-mm plate at a density of 2×10^6 cells/dish, and attached to the plate for 24 hours. Then, the cells were treated with fresh media containing each component at concentrations of 1.25, 2.5, 5 and 10 μg/ml and cultured for 24 hours. The number of viable cells was counted by measuring the dehydrogenase present in the mitochondria within the cultured cells. EZ-CYTOX reagent (EZ-1000, Daeilab) was used, and based on the absorbance measured at 450 nm, the cell viability for each concentration was calculated according to the following equation: Cell viability=(absorbance of CMX-treated group/absorbance of untreated group)×100."}}}
{"molecule": "CC(C)C(=O)O[C@H]1[C@@H]2[C@H](C)C(=O)O[C@@H]2C[C@@H](C)[C@@H]2C=CC(=O)[C@]21C", "note": "[Arnicolide C]", "values": [{"measurement": "NO production as the concentration increased", "setting": "[1]", "value": "decreased"}, {"measurement": "Concentration at which the production of NO was the lowest", "setting": "[1]; 100 ng/ml LPS", "value": 10, "unit": "µg/mL"}, {"measurement": "Effect relative to the same amount Brevilin-A (potency value of inflammation inhibition rate)", "setting": "[1]", "value": 0.7}, {"measurement": "Cell viability compared with positive control group (CTL)", "setting": "[2]", "value": "difference in cell viability from the positive control group (CTL) was significantly small"}, {"measurement": "Cell viability as the concentration increased (cytotoxicity)", "setting": "[2]", "value": "no significant change"}]}
{"molecule": "C=C(C)C(=O)O[C@H]1[C@@H]2[C@H](C)C(=O)O[C@@H]2C[C@@H](C)[C@@H]2C=CC(=O)[C@]21C", "note": "[Arnicolide D]", "values": [{"measurement": "NO production as the concentration increased", "setting": "[1]", "value": "decreased"}, {"measurement": "NO production compared with positive control group (CTL)", "setting": "[1]; 5 μg/mL, 100 ng/ml LPS", "value": "lower than that in the positive control group (CTL)"}, {"measurement": "Effect relative to the same amount Brevilin-A (potency value of inflammation inhibition rate)", "setting": "[1]", "value": 1.5}, {"measurement": "Cell viability as the concentration increased (cytotoxicity)", "setting": "[2]", "value": "no significant change"}, {"measurement": "Concentration at which the cell viability was the highest", "setting": "[2]", "value": 5000, "unit": "ng/mL"}]}
{"molecule": "C/C=C(/C)C(=O)O[C@H]1[C@@H]2[C@H](C)C(=O)O[C@@H]2C[C@@H](C)[C@@H]2C=CC(=O)[C@]21C", "note": "[Brevilin A]", "values": [{"measurement": "NO production as the concentration increased", "setting": "[1]", "value": "decreased"}, {"measurement": "Concentration at which the production of NO was the lowest", "setting": "[1]; 100 ng/ml LPS", "value": 5, "unit": "µg/mL"}, {"measurement": "Effect relative to the same amount Brevilin-A (potency value of inflammation inhibition rate)", "setting": "[1]", "value": 1.0}, {"measurement": "Cell viability as the concentration increased (cytotoxicity)", "setting": "[2]", "value": "no significant change"}, {"measurement": "Concentration at which the cell viability was the highest", "setting": "[2]", "value": 5000, "unit": "ng/mL"}]}
{"molecule": "C/C=C(\\C)C(=O)O[C@H]1[C@@H]2[C@H](C)C(=O)O[C@@H]2C[C@@H](C)[C@@H]2C=CC(=O)[C@]21C", "note": "[Microhelenin C]", "values": [{"measurement": "NO production as the concentration increased", "setting": "[1]", "value": "decreased"}, {"measurement": "Concentration at which the production of NO was the lowest", "setting": "[1]; 100 ng/ml LPS", "value": 10, "unit": "µg/mL"}, {"measurement": "Effect relative to the same amount Brevilin-A (potency value of inflammation inhibition rate)", "setting": "[1]", "value": 0.8}, {"measurement": "Cell viability compared with positive control group (CTL)", "setting": "[2]", "value": "somewhat higher than that in the positive control group (CTL)"}, {"measurement": "Cell viability as the concentration increased (cytotoxicity)", "setting": "[2]", "value": "no significant change"}]}
